Source: publication PMC12313019, “Fibrotic lung ECM upregulates SDC4/integrin-αvβ1 interaction and the interfering peptide SDC4_87-131 and its derivative peptides alleviate pulmonary fibrosis” (Regenerative Biomaterials, 2025)

Assays:
integrin-αvβ1 = integrin-αvβ1 (Homo sapiens, UniProt P05556+P06756); experiment: SPR binding of peptides to integrin-αvβ1 (Biacore 8K+); conditions: Biacore 8K+, 25°C, integrin-αvβ1 on CM5 chip, PBS + 0.05% Tween-20, peptide 0.78-100 μM, Figure 7E, small labels, best readings
Chain of integrin-αvβ1 (P06756 31-992 limits assumed): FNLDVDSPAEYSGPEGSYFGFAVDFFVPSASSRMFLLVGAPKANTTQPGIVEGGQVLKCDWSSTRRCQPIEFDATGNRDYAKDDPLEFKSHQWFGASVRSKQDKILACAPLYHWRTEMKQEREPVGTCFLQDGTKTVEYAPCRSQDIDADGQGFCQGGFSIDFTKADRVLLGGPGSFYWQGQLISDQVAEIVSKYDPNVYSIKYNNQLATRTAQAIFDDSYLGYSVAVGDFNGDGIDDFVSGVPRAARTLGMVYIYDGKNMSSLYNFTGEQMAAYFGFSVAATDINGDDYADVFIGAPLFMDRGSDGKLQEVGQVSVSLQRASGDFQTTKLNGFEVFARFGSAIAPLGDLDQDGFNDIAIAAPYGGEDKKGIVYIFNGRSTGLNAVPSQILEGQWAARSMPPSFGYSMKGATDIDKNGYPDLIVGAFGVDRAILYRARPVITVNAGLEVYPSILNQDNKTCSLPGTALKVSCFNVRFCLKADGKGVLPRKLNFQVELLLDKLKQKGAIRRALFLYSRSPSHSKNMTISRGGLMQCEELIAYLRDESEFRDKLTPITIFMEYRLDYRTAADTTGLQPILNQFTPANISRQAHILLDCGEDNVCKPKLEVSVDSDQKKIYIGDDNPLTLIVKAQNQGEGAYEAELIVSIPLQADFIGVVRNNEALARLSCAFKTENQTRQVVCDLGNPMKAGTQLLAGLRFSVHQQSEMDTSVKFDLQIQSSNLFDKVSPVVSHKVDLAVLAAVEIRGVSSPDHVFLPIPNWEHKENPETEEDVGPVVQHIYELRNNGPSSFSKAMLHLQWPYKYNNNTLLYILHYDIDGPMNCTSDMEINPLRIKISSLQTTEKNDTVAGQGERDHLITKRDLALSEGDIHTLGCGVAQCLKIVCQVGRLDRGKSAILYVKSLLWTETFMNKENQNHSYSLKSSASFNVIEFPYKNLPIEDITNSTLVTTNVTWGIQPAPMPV
Chain of integrin-αvβ1 (P05556 21-728 partner limits assumed): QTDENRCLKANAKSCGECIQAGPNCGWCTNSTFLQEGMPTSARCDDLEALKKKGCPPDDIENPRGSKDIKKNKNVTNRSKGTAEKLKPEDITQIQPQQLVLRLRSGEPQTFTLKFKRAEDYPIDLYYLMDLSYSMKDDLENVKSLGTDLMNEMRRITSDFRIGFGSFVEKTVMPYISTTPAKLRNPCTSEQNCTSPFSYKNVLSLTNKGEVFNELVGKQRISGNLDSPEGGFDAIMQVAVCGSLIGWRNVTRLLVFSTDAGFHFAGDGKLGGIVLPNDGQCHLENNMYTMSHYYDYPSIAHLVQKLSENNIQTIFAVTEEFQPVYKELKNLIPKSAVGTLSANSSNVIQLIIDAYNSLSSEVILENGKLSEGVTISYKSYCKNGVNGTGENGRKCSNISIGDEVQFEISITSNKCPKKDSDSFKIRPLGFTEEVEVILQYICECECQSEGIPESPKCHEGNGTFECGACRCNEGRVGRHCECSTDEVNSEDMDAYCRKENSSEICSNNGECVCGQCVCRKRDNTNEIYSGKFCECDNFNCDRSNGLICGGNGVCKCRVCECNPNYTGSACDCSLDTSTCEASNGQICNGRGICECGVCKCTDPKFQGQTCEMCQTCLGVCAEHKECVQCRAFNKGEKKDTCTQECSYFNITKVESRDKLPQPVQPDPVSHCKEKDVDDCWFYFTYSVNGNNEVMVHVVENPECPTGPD
Description: The Biacore 8K+ system (GE Healthcare) was used at 25°C. The ligand integrin-αvβ1 (1 mg/mL) was routinely coupled to the sensor chip (Series S Sensor Chip CM5, Cytiva, #100530). The peptide samples SDC4_87-131 and CS-1, -2, -3, -4, -8, -9, -10 were dissolved in PBS, and then, the samples with different concentration gradients (0.78, 1.56, 3.125, 6.25, 12.5, 25, 50, 100 μM) were injected, respectively, under the driving of buffer PBST (PBS + 0.05% Tween-20). The signal intensity was quantified in relative units (RU), and binding affinity was determined using the dissociation constant (Kd). After the experiment, 10 mM glycine-HCl buffer solution (pH = 2) was selected to regenerate the chip surface.

NIH3T3 cells = experiment: RT-PCR of fibroblast activation markers, TGF-β1 and inflammatory factors in dECM-stimulated fibroblast; format: cell-based, mouse; conditions: for mRNA levels of α-SMA, FN, Col I and TGF-β1: peptide, induced by dECM-Nor and dECM-PF
Description: (§1) Decellularized lung ECM (dECM) was prepared as described in previous study. 2 × 10^5 cells/mL NIH3T3 cells (mouse […], purchased from the Stem Cell Bank of the Chinese Academy of Sciences, Shanghai, China) were seeded on the dECM slices attached to the bottom of the culture dish and cultured in DMEM medium containing 0.5% fetal bovine serum (Gibco, Waltham, MA, USA) at 37°C and 5% CO2.
(§2) Total RNA was extracted from cells or lung tissue (10 mg) using Trizol reagent, and mRNA was reverse transcribed into cDNA using HiScript® II QRT SuperMix for qPCR (Vazyme, #R223-01). Real-time fluorescence quantitative PCR (RT-PCR) was performed using Hieff® qPCR SYB Green Master Mix (YEASEN, #11201ES08) to obtain the Ct value. The 2^−ΔΔCt method was used to obtain the relative expression level of mRNA in each group. Primers (Table 1) were purchased from Sangon Biotech.

pan-integrins = experiment: FN-coating cell adhesion assay (pan-integrins activation); format: cell-based, mouse; conditions: 100 nM, n=4–5
Description: 10 μg/mL Fibronectin (Merck, #10838039001) was dissolved in serum-free DMEM medium and dropped into a 96-well plate, 50 μL per well. The plate was incubated at 4 °C overnight. After blocking with 3% bovine serum albumin at room temperature for 30 min, 4×10^4 cells were inoculated into each well. After incubation for 30 min, the cells were washed, fixed, and stained with crystal violet (5 mg/mL) for 30 min. Then after the crystal violet was dissolved, it was detected using an ELISA reader at 595 nm.

[1] = test system: integrin-αvβ1, FAK/AKT and PKCα/NF-κB pathways in NIH3T3 cells; experiment: Western blot of signaling proteins in dECM-stimulated fibroblast; format: cell-based, mouse; conditions: dECM, n=3; for protein levels of α-SMA, integrin-αv, p-FAK and p-PKCα: designed peptides
Description: as §1
20 mg of lung tissue was extracted with RIPA lysis buffer (Roche International Ltd., Bermuda, USA), and the protein concentration was determined using a BCA protein detection kit (Roche). Protein samples were separated by 10% sodium dodecyl sulfate polyacrylamide gel (SDS-PAGE) electrophoresis and transferred to a PVDF membrane. After blocking, the PVDF membrane was incubated with primary antibodies for α-SMA, Integrin-αV, SDC4, Integrin-β1, p-Smad3, FAK, and p-FAK (CST, #19245, #4711, #12236S, #34971, #9520S, #3285S, and #3284S) at 4°C overnight, followed by incubation with secondary antibodies (CST, #7074P2), development with ECL reagent (SAB), and acquisition of images with a chemiluminescence imaging system (ChemiScope 5600).

fibroblast = experiment: CCK-8 fibroblast viability/toxicity; format: cell-based, mouse; conditions: discussion
Description: as §1
(A) Schematic diagram of SDC487-131; (B) Effect of SDC487-131 and GRGDNP on fibroblast proliferation at 48 h was determined by CCK-8 method (n=3); (C) Effect of different concentration of SDC487-131 on fibroblast activation induced by d-PF for 48 h (n=5). Note: **p < 0.01 vs. PBS in d-Nor group; #p < 0.05 vs. PBS in d-PF group. d-Nor: dECM-Nor; d-PF: dECM-PF.
Figure S14. The viability of fibroblast after treated with peptides for 48 h was detected by CCK-8 assay.

[2] = test system: BLM-induced PF, C57BL/6J mice; experiment: BLM-induced PF in mice: HE, Masson, hydroxyproline; format: in vivo, mouse; conditions: 1 mg/kg tracheal instillation
Description: C57BL/6J mice (male, 8-to 9-week old, 18–22 g, SPF grade) were purchased from Shanghai Slake Laboratory Animal Co., Ltd. [SCXK (Hu) 2022-0004, Shanghai, China]. […] The mice were housed in an SPF environment with 22–25°C, 46–65% humidity and 12 h/12 h light-dark alternation, with free access to water and food. This animal experiment was approved by the Experimental Animal Welfare Ethics Committee of Fujian Medical University (No. FJMU IACUC 2021-0465), and was carried out in accordance with the National Research Council's Guide for the Care and Use of Laboratory Animals.
(§3) After the mice were anesthetized (1% sodium pentobarbital 50 mg/kg was injected intraperitoneally), 150 μL of bleomycin (BLM, 5 mg/mL, BIO-000001) was inhaled into the lungs of the mice by tracheal inhalation instillation. One day later, the mice were randomly divided into model and drug treatment groups, and the mice in the control group were only subjected to saline inhalation.
(§4) Based on the dosage of SDC2 fragment peptide and our experimental results (Supplementary Figure S10A and B), the dosage schedule of SDC4_87-131 was set as follows: starting on the third day after BLM inhalation, 1 mg/kg, administered via trachea infusion once every three days. And Anti-SDC4(93-121) 8 mg/kg was administered on the third and tenth days (reference dosage).
Lung tissue samples were paraffin-embedded, then sliced and dewaxed, and HE and Masson staining were performed respectively. After dehydration and sealing, images were collected and analyzed using a microscope.
100 mg of lung tissue was accurately weighed and processed according to the instructions of the hydroxyproline assay kit (Nanjing Jiancheng, Nanjing, China), and the absorbance was measured at a wavelength of 550 nm. The data were expressed as micrograms (µg) of hydroxyproline per mg of dry lung tissue.

[3] = test system: BLM-induced PF, C57BL/6J mice; experiment: BLM-induced PF in mice: RT-PCR of lung tissue; format: in vivo, mouse; conditions: 1 mg/kg tracheal instillation, q3d, n=4–6
Description: as §3, §4, §2

Row | Kd (integrin-αvβ1) | Compound | effects on FN and Col I mRNA vs SDC4_87-131 (NIH3T3 cells; dECM, n=5) | mRNA levels of α-SMA, FN, Col I and TGF-β1 (NIH3T3 cells; n=5) | inhibition of pan-integrins activation vs SDC4_87-131 (pan-integrins) | protein levels of α-SMA, integrin-αv, p-FAK and p-PKCα [1] | also measured
1 | 29.1 nM | Ac-NHIPERAGSGSQVPTEPKKLSPVEESEDRSNKVSM-NH2 [CS-2] | – | – | – | – | –
2 | 35.4 nM | Ac-GSADPRAVPTEPKKLSPVEESEDITNSTLV-NH2 [CS-10] | significantly greater than those of SDC4_87-131 | significantly downregulate | stronger than that of SDC4_87-131 | significantly decrease the protein levels | –
3 | 64.9 nM | Ac-NHIPERAGSGSQVPTEPKKLSPVEESEDWSNKVSM-NH2 [CS-3] | significantly greater than those of SDC4_87-131 | significantly downregulate | stronger than that of SDC4_87-131 | significantly decrease the protein levels | –
4 | 32.3 nM | Ac-NHIPERAVPTEPKKLSPVEESEDITNSTLVTTNVT-NH2 [CS-4] | significantly greater than those of SDC4_87-131 | significantly downregulate | stronger than that of SDC4_87-131 | significantly decrease the protein levels | reduction of integrin-αv and p-FAK vs SDC4_87-131 [1]: weaker reduction in integrin-αv and p-FAK compared to SDC4_87-131
5 | 25.9 nM | Ac-NHIPERAVPTEPKKLSPVEESEDITNSTLV-NH2 [CS-8] | significantly greater than those of SDC4_87-131 | significantly downregulate | stronger than that of SDC4_87-131 | significantly decrease the protein levels | –
6 | – | CS(=O)(=O)c1cccc(CNc2nc(Nc3ccc4c(c3)CCC(=O)N4)ncc2C(F)(F)F)c1 [PF-573228, reference compound] | – | – | – | – | dECM-PF-induced fibroblast activation and TGF-β1 upregulation (NIH3T3 cells; 1 μM, 3 μM, mRNA levels, n=4): significantly reduced dECM-PF-induced fibroblast activation and TGF-β1 upregulation in a dose-dependent manner
7 | 10.9 nM | Ac-NHIPETVEDPEPKKLSPVEESEDITNSTLV-NH2 [CS-9] | significantly greater than those of SDC4_87-131 | significantly downregulate | stronger than that of SDC4_87-131 | significantly decrease the protein levels | toxicity (summary) (fibroblast): low toxicity; downregulation of all four mRNAs (α-SMA, FN, Col I, TGF-β1) vs SDC4_87-131 (NIH3T3 cells; dECM, n=5): significantly higher than that of SDC4_87-131; reduction of α-SMA protein vs SDC4_87-131 [1]: stronger reduction in α-SMA than SDC4_87-131; inhibitory effect on collagen deposition vs SDC4_87-131 ([2]; q3d from day 3): significantly stronger inhibitory effect on collagen deposition than SDC4_87-131; anti-PF effect vs SDC4_87-131 ([2]; overall, q3d): significantly enhanced anti-PF effect compared with SDC4_87-131; effects on α-SMA, FN and IL-6 vs SDC4_87-131 [3]: significantly stronger than that of SDC4_87-131
8 | 12.8 nM | Ac-NHIPERAGSGSQVPTEPKKLSPVEESEDVSNKVSMTTNVT-NH2 [CS-1] | – | – | – | – | –
